Results on 23 compounds are retold here after patent US10550102B2, “Indane and indoline derivatives and the use thereof as soluble guanylate cyclase activators” (NOVARTIS AG, priority 2014, dated 2020).

Bounds are passed on as bounds.

Chain of soluble guanylate cyclase (human GUCYA3 and GUCYB3) overexpressed in CHO cells (Q02108 whole entry partner): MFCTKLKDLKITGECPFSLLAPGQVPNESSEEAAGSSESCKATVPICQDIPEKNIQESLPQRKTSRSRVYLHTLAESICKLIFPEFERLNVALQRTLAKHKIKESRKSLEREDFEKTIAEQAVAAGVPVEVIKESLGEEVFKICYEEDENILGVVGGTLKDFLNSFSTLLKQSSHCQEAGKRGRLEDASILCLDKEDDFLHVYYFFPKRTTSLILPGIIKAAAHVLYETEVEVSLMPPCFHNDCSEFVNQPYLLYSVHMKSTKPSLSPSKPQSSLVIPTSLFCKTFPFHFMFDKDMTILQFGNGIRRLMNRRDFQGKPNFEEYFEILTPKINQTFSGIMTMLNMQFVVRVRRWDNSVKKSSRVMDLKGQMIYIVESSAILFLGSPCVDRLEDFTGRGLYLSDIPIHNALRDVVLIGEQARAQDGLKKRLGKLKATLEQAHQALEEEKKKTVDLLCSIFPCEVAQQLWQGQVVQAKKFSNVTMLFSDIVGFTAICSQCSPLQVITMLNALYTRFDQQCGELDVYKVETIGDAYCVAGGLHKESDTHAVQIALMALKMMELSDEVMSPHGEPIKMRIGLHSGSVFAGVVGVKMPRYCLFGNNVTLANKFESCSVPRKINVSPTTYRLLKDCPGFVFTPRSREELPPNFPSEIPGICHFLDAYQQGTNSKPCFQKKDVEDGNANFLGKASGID
Chain of soluble guanylate cyclase (human GUCYA3 and GUCYB3) overexpressed in CHO cells (Q02153 whole entry): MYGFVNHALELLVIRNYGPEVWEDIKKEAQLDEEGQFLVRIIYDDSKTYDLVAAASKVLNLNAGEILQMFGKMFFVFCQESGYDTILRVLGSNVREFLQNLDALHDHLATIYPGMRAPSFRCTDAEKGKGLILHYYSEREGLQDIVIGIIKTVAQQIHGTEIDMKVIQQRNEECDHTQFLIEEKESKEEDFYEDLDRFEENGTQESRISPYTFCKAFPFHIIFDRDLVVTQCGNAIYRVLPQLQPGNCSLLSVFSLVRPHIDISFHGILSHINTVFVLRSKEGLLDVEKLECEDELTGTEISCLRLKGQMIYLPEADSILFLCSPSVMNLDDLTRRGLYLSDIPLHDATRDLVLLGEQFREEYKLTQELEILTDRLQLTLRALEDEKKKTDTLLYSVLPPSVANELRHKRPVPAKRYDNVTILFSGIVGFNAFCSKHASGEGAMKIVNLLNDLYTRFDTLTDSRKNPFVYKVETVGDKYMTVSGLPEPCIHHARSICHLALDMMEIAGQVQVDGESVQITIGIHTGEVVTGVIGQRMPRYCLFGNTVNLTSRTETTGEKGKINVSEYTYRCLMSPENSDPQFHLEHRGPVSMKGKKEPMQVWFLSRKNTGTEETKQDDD

In the test the target is soluble guanylate cyclase (human GUCYA3 and GUCYB3) overexpressed in CHO cells (Homo sapiens (Human), UniProt Q02108+Q02153). Description: CHO cellular assay (cGMP production, Cisbio cGMP HTRF kit). Format: cell-based. The conditions noted are these: CHO GUCY clone 8E10, cGMP production, assay buffer with 1 mM IBMX and 20 uM ODQ, 1 h room temperature; minimum quantification limit 0.5 nM (listed 0.5 nM means ≤0.5 nM); read-out: EC50. The source says:
Chinese hamster ovary (CHO) cells overexpressing soluble guanylate cyclase were generated to test the effect of sGC activators in a cellular context. Human cDNAs for GUCYA3 (RefSeq: NM_000856.3) and GUCYB3 (RefSeq: NM_000857.1) were amplified by PCR from a HUVEC (Human Umbilical Vein Endothelial Cells) cDNA library and cloned into mammalian expression vectors. CHO K1 cells (ATCC CCL-61) were transfected using Lipofectamine 2000 following manufacturer's instructions and stably expressing clones were identified by antibiotic selection. CHO GUCY clone 8E10 was used for subsequent experiments. Cells were seeded at a density of 3000 cells/well in white 384-well proxyplates (Perkin Elmer) and incubated overnight, then the medium was removed and cells were washed with assay buffer (HBSS, 0.1% BSA. 1 mM IBMX, 20 uM ODQ). sGC activators were serially diluted in DMSO, then diluted in assay buffer prior to adding to cells (10 ul/well, final DMSO concentration 0.5%). Cells were incubated with compounds for 1 h room temperature, then assayed for cGMP production using Cisbio cGMP HTRF kit (62GM2PEC) according to manufacturer's instructions. The EC50s are calculated based on the amount of cGMP interpolated from the standard curve, using a 4-parameter sigmoidal dose-response.
In general terms: Time-resolved FRET reads energy transfer from a long-lived donor to a nearby acceptor.
The EC50 is the concentration needed to bring the measured effect to its halfway point. Turning to `Cc1cc2c(c(-c3cccc(-n4ncc(C(=O)O)c4C(F)(F)F)n3)c1)C(Nc1ccc(C3CCN(C(=O)C4CC4)CC3)cc1C)CC2` (racemic) [Example 11-1, (±)-1-(6-(3-((4-(1-(cyclopropanecarbonyl)piperidin-4-yl)-2-methylphenyl)amino)-6-methyl-2,3-dihydro-1H-inden-4-yl)pyridin-2-yl)-5-(trifluoromethyl)-1H-pyrazole-4-carboxylic acid], the EC50 came to 1 nM. For `Cc1cc(C2CCN(C(=O)C3CC3)CC2)ccc1NC1CCc2cccc(-c3cccc(-n4ncc(C(=O)O)c4C)c3)c21` (racemic) [Example 11-4, (±)-1-(3-(3-((4-(1-(cyclopropanecarbonyl)piperidin-4-yl)-2-methylphenyl)amino)-2,3-dihydro-1H-inden-4-yl)phenyl)-5-methyl-1H-pyrazole-4-carboxylic acid] the value was not above 0.5 nM. The value for `Cc1cc(C2CCN(c3ccccn3)CC2)ccc1NC1CCc2cccc(-c3cccc(-n4ncc(C(=O)O)c4C)n3)c21` (racemic) [Example 59, (±)-Methyl-16-(3-((2-methyl-4-(1-(pyridin-2-yl)piperidin-4-yl)phenyl)amino)-2,3-dihydro-1H-inden-4-yl)pyridin-2-yl)-1H-pyrazole-4-carboxylic Acid] was 1 nM; that for `Cc1cc(C2CCN(C3CC3)CC2)ccc1NC1CCc2cccc(-c3cccc(-n4ncc(C(=O)O)c4C)n3)c21` (racemic) [Example 60, (±)-1-(6-(3-(4-(1-Cyclopropylpiperidin-4-yl)-2-methylphenyl)amino)-2,3-dihydro-1H-inden-4-yl)pyridin-2-yl)-5-methyl-1H-pyrazole-4-carboxylic Acid] was 5.3 nM. For `Cc1cc(C2CCN(C(=O)C3CC3)CC2)cnc1NC1CCc2cccc(-c3cccc(-n4ncc(C(=O)O)c4C)n3)c21` (racemic) [Example 62, (±)-1-(6-(3-((5-(1-Cyclopropanecarbonyl)piperidin-4-yl)-3-methylpyridin-2-yl)amino)-2,3-dihydro-1H-inden-4-yl)pyridin-2-yl)-5-methyl-1H-pyrazole-4-carboxylic Acid] the value was 6 nM; for `CCC(=O)N1CCC(c2ccc(NC3CCc4cccc(-c5cccc(-n6ncc(C(=O)O)c6C)n5)c43)c(C)c2)CC1` (single isomer, unassigned) [(+)-46-2, (−)-5-Methyl-1-(6-(3-((2-methyl-4-(1-propionylpiperidin-4-yl)phenyl)amino)-2,3-dihydro-1H-inden-4-yl)pyridin-2-yl)-1H-pyrazole-4-carboxylic acid], 1 nM; for `CCc1cc(CN2CC(C)c3cccc(-c4cccc(-n5ncc(C(=O)O)c5CC)n4)c32)ccc1C1CCN(C(=O)[C@H](C)O)CC1` (single isomer, unassigned) [Example 17a], not above 0.5 nM. With `CCc1cc(O[C@H]2CCc3cccc(-c4cccc(-n5ncc(C(=O)O)c5CC)n4)c32)ccc1C1CCN(C(=O)C(C)CCO)CC1` (single isomer, unassigned) [Example 32a], the EC50 was not above 0.5 nM. Take `Cc1c(NC2CCc3cccc(-c4cccc(-n5ncc(C(=O)O)c5C)n4)c32)ccc(C2CCN(C(=O)CC3CC3)CC2)c1F` (single isomer, unassigned) [Example (+) or (−)-46-4, 1-(6-(3-((4-(1-(2-cyclopropylacetyl)piperidin-4-yl)-3-fluoro-2-methylphenyl)amino)-2,3-dihydro-1H-inden-4-yl)pyridin-2-yl)-5-methyl-1H-pyrazole-4-carboxylic acid]: the 50% effective concentration (EC50) was 1.4 nM. For `Cc1c(NC2CCc3cccc(-c4cccc(-n5ncc(C(=O)O)c5C)n4)c32)ccc(C2CCN(C(=O)CC3CC3)CC2)c1F` (single isomer, unassigned) [Example (−) or (+)-46-4, 1-(6-(3-((4-(1-(2-cyclopropylacetyl)piperidin-4-yl)-3-fluoro-2-methylphenyl)amino)-2,3-dihydro-1H-inden-4-yl)pyridin-2-yl)-5-methyl-1H-pyrazole-4-carboxylic acid], the EC50 was determined as 136 nM.

Consider `CCc1cc(CC2CCc3cccc(-c4cccc(-n5ncc(C(=O)O)c5CC)n4)c32)ccc1C1CCN(C(=O)C2CC2)CC1` (single isomer, unassigned; (+)) [38-1 (+), (+)-1-(6-(3-(4-(1-(cyclopropanecarbonyl)piperidin-4-yl)-3-ethylbenzyl)-2,3-dihydro-1H-inden-4-yl)pyridin-2-yl)-5-ethyl-1H-pyrazole-4-carboxylic acid], for which the EC50 is not above 0.5 nM.

For the compound `CCc1cc(CC2CCc3cccc(-c4cccc(-n5ncc(C(=O)O)c5C)n4)c32)ccc1C1CCN(C(=O)C2CC2)CC1` (single isomer, unassigned; (+)) [38-2 (+), (+)-1-(6-(3-(4-(1-(cyclopropanecarbonyl)piperidin-4-yl)-3-ethylbenzyl)-2,3-dihydro-1H-inden-4-yl)pyridin-2-yl)-5-methyl-1H-pyrazole-4-carboxylic acid], the EC50 was not above 0.5 nM. For `CCc1c(C(=O)O)cnn1-c1cccc(-c2cccc3c2C(Cc2ccc(C4CCN(C(=O)C5CC5)CC4)cc2C)CC3)n1` (single isomer, unassigned; (+)) [38-3 (+), (+)-1-(6-(3-(4-(1-(cyclopropanecarbonyl)piperidin-4-yl)-2-methylbenzyl)-2,3-dihydro-1H-inden-4-yl)pyridin-2-yl)-5-ethyl-1H-pyrazole-4-carboxylic acid] the value was not above 0.5 nM. For `CCC[C@H](O)C(=O)N1CCC(c2ccc(CC3CCc4cccc(-c5cccc(-n6ncc(C(=O)O)c6CC)n5)c43)cc2CC)CC1` (single isomer, unassigned; (+)) [40-1 (+)] the value was not above 0.5 nM; for `CCc1c(C(=O)O)cnn1-c1cccc(-c2cccc3c2C(Cc2ccc(C4CCN(C(=O)[C@H](C)O)CC4)cc2C)CC3)n1` (single isomer, unassigned; (+)) [40-2 (+)], not above 0.5 nM.

Take `CCC[C@H](O)C(=O)N1CCC(c2ccc(CC3CCc4cccc(-c5cccc(-n6ncc(C(=O)O)c6CC)n5)c43)c(C)c2)CC1` (single isomer, unassigned; (+)) [40-3 (+)]: the EC50 was not above 0.5 nM. The value for `Cc1cc2c(c(-c3cccc(-n4ncc(C(=O)O)c4C(F)(F)F)n3)c1)C(Nc1ccc(C3CCN(C(=O)C4CC4)CC3)cc1C)CC2` (single isomer, unassigned; (+)) [43 (+), (+)-1-(6-(3-((4-(1-(Cyclopropanecarbonyl)piperidin-4-yl)-2-methylphenyl)amino)-6-methyl-2,3-dihydro-1H-inden-4-yl)pyridin-2-yl)-5-(trifluoromethyl)-1H-pyrazole-4-carboxylic acid] was 1 nM; that for `Cc1cc(C2CCN(C(=O)C3CC3)CC2)ccc1NC1CCc2cccc(-c3cccc(-n4ncc(C(=O)O)c4C)c3)c21` (single isomer, unassigned; (+)) [44 (+), (+)-1-(3-(3-((4-(1-(cyclopropanecarbonyl)piperidin-4-yl)-2-methylphenyl)amino)-2,3-dihydro-1H-inden-4-yl)phenyl)-5-methyl-1H-pyrazole-4-carboxylic acid] was not above 0.5 nM. The value for `Cc1cc(C2CCN(C(=O)C3CC3)CC2)ccc1CC1CCc2cccc(-c3cccc(-n4ncc(C(=O)O)c4C)c3)c21` (single isomer, unassigned; (+)) [54. b). (+), (+)-1-(3-(3-(4-(1-(cyclopropanecarbonyl)piperidin-4-yl)-2-methylbenzyl)-2,3-dihydro-1H-inden-4-yl)phenyl)-5-methyl-1H-pyrazole-4-carboxylic acid] was 1 nM; that for `CCc1cc(CC2CCc3cccc(-c4cccc(-n5ncc(C(=O)O)c5C)c4)c32)ccc1C1CCN(C(=O)C2CC2)CC1` (single isomer, unassigned; (+)) [55-1 (+), (+)-1-(3-(3-(4-(1-(cyclopropanecarbonyl)piperidin-4-yl)-3-ethylbenzyl)-2,3-dihydro-1H-inden-4-yl)phenyl)-5-methyl-1H-pyrazole-4-carboxylic acid] was not above 0.5 nM; that for `Cc1nnc(N2CCC(c3ccc(NC4CCc5cccc(-c6cccc(-n7ncc(C(=O)O)c7C)n6)c54)c(C)c3)CC2)o1` (single isomer, unassigned; (+)) [58. b). (+), (+)-5-methyl-1-(6-(3-((2-methyl-4-(1-(5-methyl-1,3,4-oxadiazol-2-yl)piperidin-4-yl)phenyl)amino)-2,3-dihydro-1H-inden-4-yl)pyridin-2-yl)-1H-pyrazole-4-carboxylic acid] was not above 0.5 nM. Turning to `CCc1cc(CN2CC(C)c3cccc(-c4cccc(-n5ncc(C(=O)O)c5CC)n4)c32)ccc1C1CCN(C(=O)C2CC2)CC1` (single isomer, unassigned; (+)) [(+)-20-1, (+)-1-(6-(1-(4-(1-(Cyclopropanecarbonyl)piperidin-4-yl)-3-ethylbenzyl)-3-methylindolin-7-yl)pyridin-2-yl)-5-ethyl-1H-pyrazole-4-carboxylic acid], the 50% effective concentration (EC50) is not above 0.5 nM. On to `CCc1c(C(=O)O)cnn1-c1cccc(-c2cccc3c2N(Cc2ccc(C4CCN(C(=O)C5CC5)CC4)cc2C)CC3C)n1` (single isomer, unassigned; (+)) [(+)-20-2, (+)-1-(6-(1-(4-(1-(Cyclopropanecarbonyl)piperidin-4-yl)-2-methylbenzyl)-3-methylindolin-7-yl)pyridin-2-yl)-5-ethyl-1H-pyrazole-4-carboxylic acid], for which the EC50 turned out to be 9.9 nM.
